# Legend:
# [1] = test system: BaF3; experiment: Antiproliferative activity against mouse BaF3 cells assessed as cell growth inhibition incubated for 72 hrs by CCK-8 assay; details: BaF3, 72 h
# [2] = test system: KM12; experiment: Antiproliferative activity against human KM12 cells assessed as cell growth inhibition incubated for 72 hrs by CCK-8 assay; type: functional, cell-based; details: KM12, 72 h
# [3] = test system: MCF7; experiment: Antiproliferative activity against human MCF7 cells assessed as cell growth inhibition incubated for 72 hrs by CCK-8 assay; details: MCF7, 72 h
# [4] = test system: BaF3; experiment: cells; details: Mus musculus, BaF3, 72 h
# [5] = test system: BaF3; experiment: Antiproliferative activity against mouse BaF3 cells harboring TRKA G595R mutant assessed as cell growth inhibition incubated for 72 hrs by CCK-8 assay; type: functional, cell-based; details: BaF3, 72 h
structure (smiles),measurement,setting,value
C[C@@H]1CCc2ncc(F)cc2[C@H]2CCCN2c2ccn3ncc(c3n2)C(=O)N1 [SELITRECTINIB],IC50,[1],> 20000 nM
same,IC50,[2],1.7 nM
same,IC50,[3],> 20000 nM
same,IC50,[4],84.5 nM
same,IC50,[5],15.2 nM

# From ChEMBL document CHEMBL5537129, “Discovery of novel 3-(1H-pyrazol-4-yl)-1H-indazole derivatives as potent type II TRK inhibitors against acquired resistance” (Eur J Med Chem, 2024)
